# What was measured:
# rat eyes = assay: Tolerability of intravitreally injected DMSO in rat eyes; format: in vivo; conditions: intravitreal, 3 μl, 60%, 1/10 and 1/100 dilution, monitored two weeks
# Protocol: In order to test the tolerability of DMSO in eye, DMSO (USP, Ph. Eur.) was injected to the rat eyes intravitreally using 34 G needle The injected volume was 3 μl and three concentrations were injected; 60%, 1/10 dilution, 1/100 dilution. Used Ph. Eur. grade DMSO was 0.2 μm Filter sterilized in Class 5 isolator before the injection.
# The rats were monitored for two weeks using the following endpoints: • fundus imaging, including blood vessels • cloudiness and other symptoms in the anterior part of the eye • optic nerve head • state of the vasculature in the posterior eye segment (FAG) • ERG • intraocular pressure • retinal thickness with OCT • histology (in the end)
# [1] = Chemical stability of latanoprost in HBSS-buffer; format: physicochemical; conditions: HBSS-buffer pH 7.4, +37° C., 48 h
# Protocol: Chemical stability of latanoprost was studied simultaneously in HBSS-buffer, pH 7.4, using the same protocol but replacing the vitreous with the buffer.
# (§1) Hydrolysis of latanoprost was evaluated in buffer and in vitreous with pH adjusted to 7.4.
# [2] = Hydrolysis of latanoprost to latanoprost acid in porcine vitreous; format: in vitro ADME
# Protocol: Porcine vitreous was mixed with Hanks' balanced salt solution containing 50 mM Hepes (HBSS-buffer, pH 7.4) at and vitreous mix (200 μl) was pipetted to 96-well plates. The plates were incubated at +37° C. and 5% CO2 with mild shaking for one hour to equilibrate the pH of vitreous into neutral range (pH 7.3-7.5). After incubation, 50 μl of 50 μg/mL latanoprost was added to plates and mixed. The final vitreous/buffer ratio was 1:1 and latanoprost concentration 10 μg/mL Latanoprost was incubated in vitreous at +37° C. and 5% CO2 with mild shaking and samples were collected at time points (0, 1, 2, 4, 6, 24, 29, 48 hours). At each time point the 150 μl of the sample was mixed by vortexing with the 150 μl acetonitrile. The samples were stored at −20° C. until HPLC analysis.
# as §1
# First hydrolysis of latanoprost was evaluated in buffer and in vitreous with pH adjusted to 7.4 and non pH adjusted.
# [3] = Drug release from implant in porcine vitreous vs. PBS; conditions: 35.5° C., 35% PLGA9010/60% DMSO/4% b-HPCD, 180 μg latanoprost
# Protocol: These tests were carried out to ensure that the latanoprost released from the implant would go through hydrolysis to latanoprost acid, which is the active form of the molecule. Purpose of this study was also study the conversion rate of latanoprost to latanoprost acid. In addition, the release of latanoprost from ReBio test formulations was evaluated in vitreous vs. in PBS.
# Next the drug release from implant was also tested in porcine vitreous vs. PBS(=phosphate buffered saline).
# Formulation composition in this example was 35% PLGA9010/60% DMSO/4% b-HPCD—180 μg Latanoprost.
# [4] = Solubility of regorafenib in water and PBS; format: physicochemical
# Protocol: Solubility of regorafenib in water and PBS is negligible. Thus, Tween80 was added in PBS to increase solubility in the dissolution media. Regorafenib in vitro release studies from PGLA/DMSO ISFI were carried out in sink conditions, 2-5 ml PBS pH 7.2 (+Tween80 0.05%) in plastic and glass vessels at 35.5° C. (estimated at 10 mm depth in eye) and 60 rpm, orbit 61 mm in dark.
smiles,measurement,setting,value
"C[S+](C)[O-] [DMSO, dimethylsulfoxide]",adverse effects in eye,rat eyes,No adverse effect
"CC(C)OC(=O)CCC/C=C\C[C@@H]1[C@@H](CC[C@@H](O)CCc2ccccc2)[C@H](O)C[C@@H]1O [latanoprost, Latanoprost]",latanoprost acid formation in mere buffer,[1],No latanoprost acid was formed
same,amount of latanoprost acid in vitreous over time,"[2]; porcine vitreous, 48 h experiment",steadily increased
same,rate constant of latanoprost acid formation in vitreous (zero-order kinetics),"[2]; porcine vitreous/HBSS buffer 1:1, pH adjusted to 7.4, +37° C., latanoprost 10 μg/mL, 48 h",0.111 µg/h
same,conversion of released latanoprost to acid form in PBS,[3],did not change to its acid form
"CNC(=O)c1cc(Oc2ccc(NC(=O)Nc3ccc(Cl)c(C(F)(F)F)c3)c(F)c2)ccn1 [regorafenib, Regorafenib]",solubility in water and PBS,[4],negligible

# Source: patent US20240226053A9, “Compositions for ophthalmic care” (ReBio Technologies Oy, priority 2021, published 2024)
